From patent US20190076461A1, “MATERIALS AND METHODS FOR TREATING HYPOXIC CONDITIONS” (MitoGenetics, LLC, priority 2016, published 2019)

Key:
Format in all cases: cell-based
Conditions in all cases: 24 hour incubation, vs vehicle treated cells
[1] = system: MOCS2 (molybdenum cofactor synthesis 2); assay: DNA microarray of embryonic chicken liver cells incubated with selenomethionine: MOCS2 expression
Procedure: (§1) Embryonic chicken kidney and liver cells were obtained from Charles River Laboratories, Inc. Cells were cultured in 75 cc flasks. Each flask represented a treatment group as follows: Control, 1 nM selenomethionine. Treatments consisted of 24 hour incubations with selenomethionine. After that period, samples were processed for microarray analysis. Experiments were performed in triplicate. DNA microarray analyses were performed using a system provided by Agilent. Arrays included four arrays per chip (Agilent 4×44K chip). Total RNA was reverse transcribed (1000 ng) using T7 primers and labeled and transcribed using Cyanine-3 dye. Each array was hybridized with at least 1.65 μg of labeled cRNA at 65° C. for 18 hours. Arrays were scanned using an Agilent array scanner. The microarray platform can determine a minimum of a 1.5 fold change in gene expression. Fold changes between homozygous ZDF rats fed potosaccharide for 28 days vs homozygous ZDF rats fed an equivalent amount of vehicle (control) were examined. In addition, gene expression was measured in heterozygous ZDF (lean rats) fed with vehicle only and compared to gene expression in homozygous ZDF control rats. Fold changes were used to calculate a percent restoration by using the fold changes between homozygous ZDF rats fed potosaccharide and lean control rats.

[2] = system: ATOX1 (ATX1 antioxidant protein 1 homolog); assay: DNA microarray of embryonic chicken liver cells incubated with selenomethionine: ATOX1 expression
Procedure: as §1

[3] = system: COX10 (COX10 homolog, cytochrome c oxidase assembly protein, heme A: farnesyltransferase); assay: DNA microarray of embryonic chicken liver cells incubated with selenomethionine: COX10 expression
Procedure: as §1

[4] = system: COX19 (COX19 cytochrome c oxidase assembly homolog); assay: DNA microarray of embryonic chicken liver cells incubated with selenomethionine: COX19 expression
Procedure: as §1

[5] = system: COX7A2 (cytochrome c oxidase subunit VIIa polypeptide 2); assay: DNA microarray of embryonic chicken liver cells incubated with selenomethionine: COX7A2 expression
Procedure: as §1

[6] = system: COX8A (cytochrome c oxidase subunit VIIIA); assay: DNA microarray of embryonic chicken liver cells incubated with selenomethionine: COX8A expression
Procedure: as §1

## C[Se]CC[C@H](N)C(=O)O [selenomethione, L-selenomethionine]
[1]
  Fold Change (1 nM Se vs Control), MOCS2: 2.2 fold
[2]
  Fold Change (1 nM Se vs Control), ATOX1: 1.4 fold
[3]
  Fold Change (1 nM Se vs Control), COX10: 1.4 fold
[4]
  Fold Change (1 nM Se vs Control), COX19: 1.3 fold
[5]
  Fold Change (1 nM Se vs Control), COX7A2: 2.2 fold
[6]
  Fold Change (1 nM Se vs Control), COX8A: 1.5 fold
